This passage reports IC50 results from ChEMBL document CHEMBL1145642, “Farnesyl pyrophosphate synthase enantiospecificity with a chiral risedronate analog, [6,7-dihydro-5H-cyclopenta[c]pyridin-7-yl(hydroxy)methylene]bis(phosphonic acid) (NE-10501): Synthetic, structural, and modeling studies” (Bioorg Med Chem Lett, 2008).

The structures appear in SMILES notation.

In the assay the target is T1, Farnesyl pyrophosphate synthase (Homo sapiens, UniProt P14324).
T1 sequence (P14324 whole entry): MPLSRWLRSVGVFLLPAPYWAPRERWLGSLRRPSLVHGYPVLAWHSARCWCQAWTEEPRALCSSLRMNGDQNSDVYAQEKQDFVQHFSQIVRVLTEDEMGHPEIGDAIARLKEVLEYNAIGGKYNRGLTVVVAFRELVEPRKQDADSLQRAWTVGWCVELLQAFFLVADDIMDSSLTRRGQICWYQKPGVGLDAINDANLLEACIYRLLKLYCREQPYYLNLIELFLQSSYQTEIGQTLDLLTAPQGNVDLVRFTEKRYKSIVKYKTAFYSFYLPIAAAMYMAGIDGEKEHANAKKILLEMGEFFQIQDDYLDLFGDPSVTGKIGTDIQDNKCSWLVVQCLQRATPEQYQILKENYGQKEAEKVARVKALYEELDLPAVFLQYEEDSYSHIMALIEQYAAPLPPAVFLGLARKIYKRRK

`O=P(O)(O)C(O)(C1CCc2ccncc21)P(=O)(O)O` (stereo unspecified) yielded an IC50 of 630 nM.
